One data set addresses T1, HER2 (Homo sapiens, UniProt P04626).
T1 construct: endogenous in cells
The data set can be described thus: ELISA-based HER receptor phosphorylation assay, HER2. In kind it is cell-based. Particulars: MCF7/HER2 cells, HRG, 600 nM protein. A general note: An ELISA detects its analyte on a solid surface through an enzyme-linked reagent.

Another data set addresses T2, HER3 (Homo sapiens, UniProt P21860).
T2 construct: endogenous in cells
In words: ELISA-based HER receptor phosphorylation assay, HER3. Format: cell-based. Conditions: HRG; for maximal inhibition of HER3 phosphorylation: 600 nM protein; for IC50: read-out: IC50, inhibition of HER3 phosphorylation.

The next data set has as its system heregulin (HRG). In words: 125I-HRG binding with BS3 cross-linking and SDS-PAGE. Particulars: for binding of 125I-HRG: 5 nM 125I-HRG, BS3 cross-linking, SDS-PAGE.
A further data set concerns A431 s.c. tumor. The data set can be described thus: Therapeutic evaluation in A431 s.c. human tumor xenograft model. Format: in vivo, nude mice. (A xenograft is tissue or cells of one species grown in another, often human tumour cells in immunodeficient mice.)
Another data set deals with A431 tumor bearing mice. In words: Pilot toxicity study in A431 tumor bearing mice. In kind it is in vivo, nude mice.
Another data set addresses EGF (Homo sapiens, UniProt P01133). In words: 125I-EGF binding with BS3 cross-linking and SDS-PAGE. Conditions: supernatant of transfected 293T cells, 5 nM 125I-EGF, BS3 cross-linking, SDS-PAGE.
Another data set concerns MCF7 cells. In words: Ligand-stimulated cell proliferation, Alamar Blue. Particulars: MCF7 stimulated by HRGβ, at 1 μm. In kind it is cell-based. On the procedure:
Cell lines MCF7, ZR75-1, ME180 were purchased from ATCC and kept in 10% of FBS DMEM. Cells were seeded at 2000 per well in 96-well plate in 1% FBS supplemented DMEM. After 2-3 hr of seeding, increasing concentrations of candidate HER ECD derivatives were added to the culture in the present of ligands (EGF or HRGβ). Cells were incubated at 37° C. for about 72 hr. Cells relative density were measured by Alamar Blue method. Alamar Blue (Sigma) was prepared in PBS at concentration of 4 uM, added to the microplate at 1/10 volume of culture medium (final concentration 0.4 uM) and plates returned to the incubator. Fluorescence was read at Ex.=530 nm/Em.=590 nm after 2-4 hours at 37° C.
On the technique in general: The colour change of resazurin is a common sign of viable cells or microbes.

Data set [1] deals with the molecule itself. The data set can be described thus: self-association by size exclusion chromatography (apparent over calculated molecular weight).
Protocol: This methodology permits simplified analysis of the ability of receptor ectodomains to associate as either homodimers or heterodimers. To perform molecular size exlusion analysis, eluted molecules were compared to reference standards. […] Smaller volumes elute in the retained volume of the column, while larger molecules elute in smaller volumes according to their increasing molecular mass.
Molecular size exclusion analysis was performed using a A TSK3000 size exclusion column (Tosoh Bioscience, Montgomeryville, Pa.) equilibrated with PBS at a flow rate of 0.7 ml/min. Gel filtration standards (BioRad, Hercules, Calif.) were used to calibrate the column. Their elution volumes and molecular weights were plotted. Elution volumes were determined for each unknown by injection of 30 μg of each molecule in PBS and their apparent molecular weights calculated. Flow was maintained over the column between injections. Molecular weights were determined using a Standard curve for molecular weight standards.
Data set [2] addresses T3, neuregulin-1 beta 1 (NRG1β1) (human, UniProt Q02297-6 177-241, limits assumed).
T3 construct: also called HRG; heregulin
T3 sequence (looked up): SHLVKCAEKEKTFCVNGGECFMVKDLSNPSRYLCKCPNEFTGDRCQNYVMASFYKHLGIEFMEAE
In words: 125I-HRG (5 nM) cross-linking (BS3), normalised by anti-HER3 Western blot densitometry.
Protocol: 1 mM of the BS₃ crosslinker was added at the end of the binding assay to cross-link the bound molecules. Binding reactions were separated on an SDS-PAGE gel. The protein gel was dried and exposed to a film for 2 and 6 hours.

[3] abbreviates: Group 5, 38 mg/kg Iressa, group mean.
Where [4] appears, read: Group 6, 75 mg/kg Iressa, group mean.

“Also recorded” adds a separate entry of the source. Marks after values point to notes of the source that are not given here.

EGF, sequence (P01133 971-1023 limits assumed): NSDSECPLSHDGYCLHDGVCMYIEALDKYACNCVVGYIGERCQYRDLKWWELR
Protocol for A431 s.c. tumor: Mice were obtained from the commercial suppliers (Harlan, UK). The mice were 4-6 weeks old at the start of the study. […] The room was air-conditioned by a system designed to maintain an air temperature range of 23±2° C. Mice were housed in groups of 2 or 5 during the procedure in plastic cages (Techniplast UK) with irradiated bedding and provided with both nesting materials and environmental enrichment. […] Tumor dimensions were recorded (calliper measurement of length and width and tumor cross-sectional area and volume calculated) three times weekly and body weight measured weekly. Each mouse remained in the study until terminated, or until necessitate removal of that mouse from the study. Animals were terminated if the tumor size becomes excessive or any adverse effects are noted. At termination the mice were anaesthetized (Hypnorm/Hynovel) and 1 ml blood removed by cardiac puncture, processed for plasma, frozen for both the pilot and therapeutic study. The mice were then terminated by an approved S1 method. For the therapeutic study, the tumors were excised, weighed, measured and fixed in formalin. Body weight data, tumor growth and final tumor weight were recorded and reported in spreadsheet and graphical format. Statistical analysis was performed if appropriate using Minitab. […] An extra group for the therapeutic study was added by PRECOS as below. Group 9: 30 mg/kg human IgG i.p. 3 times weekly. Iressa was prepared by PRECOS in 10% DMSO & 5% Cremaphor in PBS. Tumors were initiated with 2×10^6 cells per mouse for the therapeutic study.
Protocol for A431 tumor bearing mice: Mice were obtained from the commercial suppliers (Harlan, UK). The mice were 4-6 weeks old at the start of the study. […] The room was air-conditioned by a system designed to maintain an air temperature range of 23±2° C. Mice were housed in groups of 2 or 5 during the procedure in plastic cages (Techniplast UK) with irradiated bedding and provided with both nesting materials and environmental enrichment.
Cells were injected subcutaneously into mice at 1×10^7 cells in a volume of 100 μl.
For the pilot toxicity study, mice were allocated to their treatment groups and treatment began on day 5 for 2 weeks in a dosing volume of 150 μl per injection. […] Tumor dimensions were recorded (calliper measurement of length and width and tumor cross-sectional area and volume calculated) three times weekly and body weight measured weekly.
Each mouse remained in the study until terminated, or until necessitate removal of that mouse from the study. Animals were terminated if the tumor size becomes excessive or any adverse effects are noted. At termination the mice were anaesthetized (Hypnorm/Hynovel) and ˜1 ml blood removed by cardiac puncture, processed for plasma, frozen for both the pilot and therapeutic study. The mice were then terminated by an approved S1 method.
Pilot toxicity study was terminated after 12 days of dosing in order to collect plasma samples 3 hours after dosing. […]
Protocol for EGF: BS^3, a chemical crosslinker (Pierce) was added at the end of the binding assay to cross-link the bound molecules. Samples were separated on an SDS-PAGE gel and exposed to a film for detection.
(§1) Western blots were probed with anti-His antibody to compare protein levels.
Protocol for HER2: Phosphorylation of HER receptors was assessed in an ELISA-based HER Receptor phosphorylation assay. Various cells (A431, MCF7, SK-BR3, SK-OV3, MCF7/HER2) were serum-starved in serum free medium for about 24 hr.
Cells were lysed on ice for 15 min and cell lysate were applied to a 96-well plate pre-coated with the respective receptor-specific capture antibodies (antibodies were purchased from R & D System) by manufacture recommended concentrations (0.4 to 4 ug/ml) and condition (in PBS, room temperature, overnight). Cell lysates were incubated with the capture Ab plate for 3 hrs at room temperature. Plates were washed 3× with PBST buffer. Anti-phosphotyrosine antibody clone 4G10 HRP-conjugated (Upstate) were diluted at 1:1000 in 1% of BSA.PBS and added to the plates, 100 μl/well for 1 hr to detect specifically HER receptors phosphorylated on tyrosine. After 3× PBST wash, the plates were developed by adding 100 μl of substrate solution (TMB, Sigma) and stopped by 50 μl of SDS stop solution. The optical density was determined by microplate reader at 650 nm (Molecular Devices, VERSAmax).
Protocol for heregulin (HRG): 1 mM of the BS3 crosslinker was added at the end of the binding assay to cross-link the bound molecules. Binding reactions were separated on an SDS-PAGE gel.
as §1

With “HF220T: truncated HER2 ECD, residues 1-508, SEQ ID NO:14”, the “maximal inhibition of HER2 phosphorylation” value with HER2 is listed as “about 35%”. Moreover, the “maximal inhibition of HER3 phosphorylation” value in the data set with HER3 (MCF7/HER2 cells) is given as “about 35%”.

A word on the IC50: it is the midpoint of a concentration-inhibition curve. In the case of “HF300T: full-length HER3 ECD, residues 1-621, SEQ ID NO:26”, the “binding of HRG as compared to the other derivatives tested” value in the data set on heregulin (HRG) (normalized by anti-HER3 Western blot densitometry) was “about 10%”. For the same molecule, the results for the “maximal inhibition of HER3 phosphorylation” value with HER3 (MCF7 cells) and in the data set with HER3 (SK-BR3 cells) were “about 38%” and “about 55%”, respectively. Besides, in the data set with HER3 (MCF7 cells), the IC50 stood at 48 nM.

In the case of `COc1cc2ncnc(Nc3ccc(F)c(Cl)c3)c2cc1OCCCN1CCOCC1` [Iressa, Gefitinib], the “tumor growth rate in comparison to the vehicle group” value in the data set on A431 s.c. tumor (38 mg/kg Iressa (Group 5)) is reported as “did not”. In addition, the “reduction of final tumor weight” value in the data set with A431 s.c. tumor (75 mg/kg Iressa (Group 6)) was determined as 69%. Besides, in the data set on A431 s.c. tumor (75 mg/kg Iressa i.p. days 1-5 cycled weekly (Group 6)), the “tumor growth rate in comparison to the vehicle group” value is reported as “significantly decreased”. In the data set on A431 s.c. tumor (setting [3]), the “Tumor volume (mm^3) Day 7” value is 51.2 mm^3, the “Tumor volume (mm^3) Day 10” value amounted to 79.4 mm^3, the “Tumor volume (mm^3) Day 12” value is given as 108.8 mm^3 and the “Tumor volume (mm^3) Day 14” value came out at 152.6 mm^3. Moreover, in the data set on A431 s.c. tumor (setting [3]), the “Tumor volume (mm^3) Day 17” value is listed as 220.6 mm^3, the “Tumor volume (mm^3) Day 19” value was found to be 259.6 mm^3, the “Tumor volume (mm^3) Day 21” value is reported as 396.9 mm^3 and the “Tumor volume (mm^3) Day 24” value turned out to be 477.0 mm^3. Also, in the data set with A431 s.c. tumor (setting [3]), the “Tumor volume (mm^3) Day 25” value came to 491.1 mm^3 and the “Tumor volume (mm^3) Day 26” value was found to be 510.1 mm^3. Further, the “Tumor weight” value in the data set with A431 s.c. tumor (Group 5, 38 mg/kg Iressa, final tumor weight, group mean) came out at 0.267 g. Moreover, in the data set with A431 s.c. tumor (setting [4]), the “Tumor volume (mm^3) Day 7” value is 48.6 mm^3, the “Tumor volume (mm^3) Day 10” value is on record as 72.5 mm^3, the “Tumor volume (mm^3) Day 12” value was determined as 87.1 mm^3 and the “Tumor volume (mm^3) Day 14” value is reported as 104.3 mm^3. In the data set with A431 s.c. tumor (setting [4]), the “Tumor volume (mm^3) Day 17” value was 123.1 mm^3, the “Tumor volume (mm^3) Day 19” value is recorded as 112.1# mm^3, the “Tumor volume (mm^3) Day 21” value is reported as 150.1# mm^3 and the “Tumor volume (mm^3) Day 24” value was 180.5# mm^3. Also, in the data set on A431 s.c. tumor (setting [4]), the “Tumor volume (mm^3) Day 25” value was 178.6# mm^3 and the “Tumor volume (mm^3) Day 26” value is 181.9# mm^3. The “Tumor weight (g)” value in the data set with A431 s.c. tumor (Group 6, 75 mg/kg Iressa, final tumor weight, group mean) is 0.095# g. For the same molecule, the “tumor size prior to termination” value in the data set on A431 tumor bearing mice (Iressa treatment groups (groups 2 and 3)) is listed as “inhibition of tumor size”. Besides, the adverse effects result with A431 tumor bearing mice (i.p., 30 mg/kg RB200h, 75 mg/kg IRESSA, or 10 mg/kg RB200h with 38 mg/kg IRESSA, 12 days of dosing) was “No adverse effects”.

Consider “HFD310: truncated HER3 ECD (1-500) fused to Fc, SEQ ID NO:44”, for which the “binding of 125I-HRG” value in the data set on heregulin (HRG) is given as “equivalent binding”.

With “HF210T: truncated HER2 ECD, residues 1-573, SEQ ID NO:16”, the “maximal inhibition of HER2 phosphorylation” value with HER2 is on record as “about 55%”. Also, the “maximal inhibition of HER3 phosphorylation” value with HER3 (MCF7/HER2 cells) is reported as “about 55%”.

Turning to “HFD400: full-length HER4 ECD fused to Fc, SEQ ID NO:48”, the “binding of 125I-EGF” value with EGF was “no binding”. The “binding of 125I-HRG” value with heregulin (HRG) was “bound”; in the data set with heregulin (HRG) (listed as HER4-650/Fc) it was “binds”.

As for “HFD300: full-length HER3 ECD (1-621) fused to Fc, SEQ ID NO:46; homodimer”, the entries for the “binding of 125I-HRG” value in the data set with heregulin (HRG) and in the data set on heregulin (HRG) (listed as HER3-621/Fc) were “equivalent binding; also recorded: bound” and “binds”, respectively.

Turning to “HF310T: truncated HER3 ECD, residues 1-500, SEQ ID NO:20”, the “binding of 125I-HRG” value with heregulin (HRG) is “equivalent binding”. Moreover, in the data set with HER3 (MCF7 cells), the “maximal inhibition of HER3 phosphorylation” value is “about 78%” and the IC50 worked out at 39 nM. Also, the “maximal inhibition of HER3 phosphorylation” value with HER3 (SK-BR3 cells) is recorded as “about 75%”. The inhibition of proliferation entry in the data set on MCF7 cells is “about 95%”.

Regarding “HFD200: full-length HER2 ECD fused to Fc, SEQ ID NO:42”, the “binding of 125I-EGF” value is reported as “did not show any detectable” in the data set with EGF and “no binding” with EGF (listed as HER2-650/Fc). Moreover, the “binding of 125I-HRG” value in the data set with heregulin (HRG) is given as “did not show any detectable”.

B1: HF410T (HER4-485) (receptor)
chain: QSVCAGTENKLSSLSDLEQQYRALRKYYENCEVVMGNLEITSIEHNRDLSFLRSVREVTGYVLVALNQFRYLPLENLRIIRGTKLYEDRYALAIFLNYRKDGNFGLQELGLKNLTEILNGGVYVDQNKFLCYADTIHWQDIVRNPWPSNLTLVSTNGSSGCGRCHKSCTGRCWGPTENHCQTLTRTVCAEQCDGRCYGPYVSDCCHRECAGGCSGPKDTDCFACMNFNDSGACVTQCPQTFVYNPTTFQLEHNFNAKYTYGAFCVKKCPHNFVVDSSSCVRACPSSKMEVEENGIKMCKPCTDICPKACDGIGTGSLMSAQTVDSSNIDKFINCTKINGNLIFLVTGIHGDPYNAIEAIDPEKLNVFRTVREITGFLNIQSWPPNMTDFSVFSNLVTIGGRVLYSGLSLLILKQQGITSLQFQSLKEISAGNIYITDNSNLCYYHTINWTTLFSTINQRILESRGPFEQKLISEEDLNMHTGHHHHHH
Regarding B1, the “M. Wt. (ap):M. Wt.” value in data set [1] is 1.98.

B2: HER3-621, full-length HER3 ECD (receptor)
chain: SEVGNSQAVCPGTLNGLSVTGDAENQYQTLYKLYERCEVVMGNLEIVLTGHNADLSFLQWIREVTGYVLVAMNEFSTLPLPNLRVVRGTQVYDGKFAIFVMLNYNTNSSHALRQLRLTQLTEILSGGVYIEKNDKLCHMDTIDWRDIVRDRDAEIVVKDNGRSCPPCHEVCKGRCWGPGSEDCQTLTKTICAPQCNGHCFGPNPNQCCHDECAGGCSGPQDTDCFACRHFNDSGACVPRCPQPLVYNKLTFQLEPNPHTKYQYGGVCVASCPHNFVVDQTSCVRACPPDKMEVDKNGLKMCEPCGGLCPKACEGTGSGSRFQTVDSSNIDGFVNCTKILGNLDFLITGLNGDPWHKIPALDPEKLNVFRTVREITGYLNIQSWPPHMHNFSVFSNLTTIGGRSLYNRGFSLLIMKNLNVTSLGFRSLKEISAGRIYISANRQLCYHHSLNWTKVLRGPTEERLDIKHNRPRRDCVAEGKVCDPLCSSGGCWGPGPGQCLSCRNYSRGGVCVTHCNFLNGEPREFAHEAECFSCHPECQPMGGTATCNGSGSDTCAQCAHFRDGPHCVSSCPHGVLGAKGPIYKYPDVQNECRPCHENCTQGCKGPELQDCLGQTLVLIGKTLESRGPFEQKLISEEDLNMHTGHHHHHH
notes: also called HF300; HF300T
In the case of B2, in data set [2], the “binding relative to the other derivatives tested” value is approximately 10%. Besides, the “M. Wt. (ap):M. Wt.” value in [1] was 2.66.

Values taken from patent US20100055093A1, “PAN-CELL SURFACE RECEPTOR-SPECIFIC THERAPEUTICS” (RECEPTOR BIOLOGIX INC., priority 2006, published 2010).
